Measured values taken from the supplement of paper PMC10307832.

Experiments:
Experiment in all cases: relative viability (nuclei count vs DMSO), 5 days (fraction); higher = more cells survive
[1] = compound: O=C1NC(=O)[C@@H](c2cn3c4c(cccc24)CCC3)[C@@H]1c1c[nH]c2ccccc12 [Tivantinib] + COc1cc2c(Oc3ccc(NC(=O)C4(C(=O)Nc5ccc(F)cc5)CC4)cc3F)ccnc2cc1OCCCN1CCOCC1 [Foretinib] (partner 0.25 µM)
How it was run: (§1)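 Lung cancer cell lines, seeded in 1536-well plates, were treated the following day by pin tool with a single drug or with five library-drug doses (not always all listed) in √10 steps on top of a fixed anchor-drug dose. Cells were fixed and nuclei stained in one step after 5 days, and nuclei were counted. Relative viability is the nuclei count for treated wells divided by that for vehicle wells, reported as medians of duplicate plates.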

[2] = compound: O=C1NC(=O)[C@@H](c2cn3c4c(cccc24)CCC3)[C@@H]1c1c[nH]c2ccccc12 [Tivantinib] + CC(C)C[C@H](NC(=O)[C@H](Cc1ccccc1)NC(=O)c1cnccn1)B(O)O [Bortezomib] (partner 0.002 µM)
How it was run: as §1

[3] = compound: CC1(COc2ccc3c(c2)ncn3-c2ccc3cccc(N4CCC(N)CC4)c3n2)COC1 [Crenolanib] + Cc1cc(Nc2cc(N3CCN(C)CC3)nc(Sc3ccc(NC(=O)C4CC4)cc3)n2)n[nH]1 [Tozasertib] (partner 0.1 µM)
How it was run: as §1

[4] = compound: O=C1NC(=O)[C@@H](c2cn3c4c(cccc24)CCC3)[C@@H]1c1c[nH]c2ccccc12 [Tivantinib] + C[C@]1(O)C[C@@H](c2nc(-c3ccc4ccc(-c5ccccc5)nc4c3)c3c(N)nccn32)C1 [Linsitinib] (partner 1 µM)
How it was run: as §1

Cell Line | relative viability ([1]; first compound 0.01 µM) | relative viability ([1]; first compound 0.03162 µM) | relative viability ([1]; first compound 0.1 µM) | relative viability ([2]; first compound 0.01 µM) | relative viability ([2]; first compound 0.03162 µM) | relative viability ([2]; first compound 0.1 µM) | relative viability ([2]; first compound 0.3162 µM) | relative viability ([3]; first compound 0.01 µM) | relative viability ([3]; first compound 0.03162 µM) | relative viability ([3]; first compound 0.1 µM) | relative viability ([3]; first compound 0.3162 µM) | relative viability ([3]; first compound 1 µM) | relative viability ([4]; first compound 0.01 µM) | relative viability ([4]; first compound 0.03162 µM) | relative viability ([4]; first compound 0.1 µM) | relative viability ([4]; first compound 0.3162 µM) | relative viability ([1]; first compound 0.3162 µM)
NCI-H322M | 1.02 | 0.922 | 0.943 | 1.17 | 1.15 | 1.22 | 1.06 | 0.51 | 0.503 | 0.461 | 0.424 | 0.465 | 0.94 | 0.864 | 0.938 | 0.398 | –
NCI-H441 | 0.749 | 1.1 | 1.01 | 0.525 | 0.651 | – | 0.449 | 0.68 | 0.82 | 0.643 | 0.717 | 0.663 | 0.383 | 0.508 | 0.563 | 0.463 | 0.876
NCI-H460 | 0.935 | 1.06 | 0.94 | 1.06 | 1.04 | 0.975 | 1.36 | 0.621 | 0.44 | 0.421 | 0.056 | 0.397 | 0.833 | 0.637 | 0.746 | 0.683 | 0.97
NCI-H520 | 0.869 | 0.792 | 0.655 | 0.687 | 0.235 | 0.505 | 0.595 | 0.48 | 0.475 | 0.514 | 0.477 | 0.437 | 1.13 | 1.11 | 0.812 | 0.91 | 0.708
NCI-H596 | 0.855 | 0.835 | 1.1 | 1.19 | 1.09 | 1.78 | 0.936 | 0.944 | 1.09 | 1.02 | 1.19 | 0.972 | 1.05 | 1.05 | 1.05 | 1.04 | 0.895
NCI-H647 | 1.25 | 1.18 | 1.12 | 0.977 | 0.848 | 0.775 | 1.14 | 0.294 | 0.384 | 0.285 | 0.354 | 0.297 | 1.15 | 1.19 | 1.12 | 1.19 | 1.21
NCI-H650 | 1.03 | 0.987 | 0.989 | 0.723 | – | 0.772 | 0.874 | 0.826 | 0.79 | 0.707 | 0.327 | 0.614 | 0.997 | – | 0.774 | 0.973 | 0.822
NCI-H661 | 1.01 | 1.04 | 0.968 | 0.897 | 0.782 | 0.9 | – | 0.342 | 0.36 | 0.35 | 0.359 | 0.412 | 0.658 | 0.442 | 0.628 | – | 0.686
NCI-H727 | 0.829 | 0.857 | 0.629 | 0.751 | 0.772 | 0.867 | – | 0.635 | 0.579 | 0.721 | 0.65 | 0.501 | 0.293 | 0.253 | 0.243 | – | 0.732
NCI-H838 | 1 | 1.07 | 0.992 | 0.712 | 0.61 | 0.683 | 0.786 | 0.321 | 0.287 | 0.25 | 0.266 | 0.251 | 1.01 | 1.04 | 0.975 | 0.984 | 1.07
NCI-H1355 | 1.08 | 1.03 | 0.995 | 1.31 | 1.18 | 1.17 | 1.21 | 0.586 | 0.596 | 0.508 | 0.354 | 0.534 | 0.726 | 0.801 | 0.725 | 0.779 | 0.915
NCI-H1437 | 1.26 | 1.34 | 1.3 | 0.503 | 0.344 | 0.425 | 0.434 | 0.458 | 0.443 | 0.415 | 0.437 | 0.39 | 1.06 | 1.04 | 0.958 | 1.04 | 1.25
NCI-H1651 | 0.931 | 0.813 | 0.769 | 0.957 | 1.03 | 0.918 | 0.942 | 0.649 | 0.716 | 0.592 | 0.852 | 0.61 | 0.937 | 1.01 | 1.04 | 0.814 | 0.691
NCI-H1666 | 0.936 | 1.01 | 0.979 | 0.856 | 0.828 | 0.744 | 0.803 | 0.695 | 0.613 | 0.633 | 0.591 | 0.555 | 0.699 | 0.807 | 0.741 | 0.735 | 0.827
NCI-H1734 | 0.952 | 0.937 | 0.743 | 0.932 | 1.01 | 0.843 | 1 | 0.275 | 0.251 | 0.249 | 0.306 | 0.275 | 0.937 | 0.846 | 0.839 | 0.85 | 0.598
NCI-H1755 | 0.971 | 0.863 | 0.871 | 0.974 | 0.94 | 0.934 | 1.01 | 0.666 | 0.594 | 0.527 | 0.501 | 0.549 | 0.975 | 0.97 | 0.916 | 1.01 | 1.03
NCI-H1915 | 1.11 | 1.06 | 1.08 | 0.982 | 0.961 | 0.946 | 0.975 | 0.453 | 0.415 | 0.436 | 0.424 | 0.391 | 1.1 | 1.14 | 1.12 | 1.08 | 1.07

Cell Line | relative viability ([1]; first compound 0.01 µM) | relative viability ([1]; first compound 0.03162 µM) | relative viability ([1]; first compound 0.1 µM) | relative viability ([2]; first compound 0.01 µM) | relative viability ([2]; first compound 0.03162 µM) | relative viability ([2]; first compound 0.1 µM) | relative viability ([2]; first compound 0.3162 µM) | relative viability ([3]; first compound 0.01 µM) | relative viability ([3]; first compound 0.03162 µM) | relative viability ([3]; first compound 0.1 µM) | relative viability ([3]; first compound 0.3162 µM) | relative viability ([3]; first compound 1 µM) | relative viability ([4]; first compound 0.01 µM) | relative viability ([4]; first compound 0.03162 µM) | relative viability ([4]; first compound 0.1 µM) | relative viability ([4]; first compound 0.3162 µM) | relative viability ([1]; first compound 0.3162 µM)
NCI-H1975 | 0.904 | 0.974 | 0.905 | 0.411 | 0.366 | 0.442 | 0.405 | 0.754 | 0.759 | 0.698 | 0.881 | 0.632 | 0.875 | 0.919 | 0.938 | 0.598 | 0.996
NCI-H1993 | 0.808 | 0.762 | 0.766 | 1.16 | 1.05 | 1.14 | 0.79 | 0.639 | 0.588 | 0.572 | 0.579 | 0.543 | 0.742 | 0.863 | 0.734 | 0.721 | 0.545
NCI-H2009 | 1.23 | 1.22 | 1.21 | 1.01 | 0.646 | 1.01 | 1.1 | 0.748 | 0.713 | 0.724 | 0.722 | 0.52 | 1.16 | 1.19 | 1.15 | 1.17 | 1.27
NCI-H2023 | 0.787 | 0.841 | 0.816 | 1.06 | 0.654 | 0.915 | 0.826 | 0.471 | 0.368 | 0.333 | 0.371 | 0.25 | 0.657 | 0.737 | 0.575 | 0.461 | 0.516
NCI-H2085 | 0.921 | 1.13 | 0.916 | 0.994 | 0.972 | 1.02 | 1.06 | 0.895 | 0.841 | 0.726 | 0.754 | 0.816 | 0.877 | 1.07 | 0.986 | 0.879 | 0.666
NCI-H2087 | 1.1 | 1.16 | 0.914 | 0.759 | 0.639 | 0.664 | 0.893 | 0.219 | 0.277 | 0.239 | 0.262 | 0.254 | 0.962 | 0.795 | 0.951 | 0.944 | 1.13
NCI-H2126 | 1.16 | 1.12 | 1.04 | 1.09 | 1.11 | 1.09 | 1.06 | 0.87 | 0.909 | 0.807 | 0.699 | 0.745 | 0.713 | 0.677 | 0.671 | 0.578 | 0.829
NCI-H2228 | – | 0.841 | 0.678 | 0.886 | 0.908 | 1.13 | 0.932 | 0.291 | 0.279 | 0.236 | 0.223 | 0.256 | 0.639 | 0.538 | 0.519 | 0.627 | 0.714
NCI-H2347 | 0.94 | 1.12 | 0.712 | 1.07 | 1.01 | 1.13 | 1.01 | 0.646 | – | – | 0.454 | 0.48 | 0.996 | 0.843 | 1.02 | 1.01 | 1.05
NCI-H2405 | 1.16 | 1.07 | 1.05 | 0.582 | 0.982 | 0.848 | 0.976 | 0.859 | 0.737 | – | 0.502 | 0.691 | 1.16 | 1.02 | 0.941 | 0.739 | 0.98
NCI-H3122 | 0.947 | 0.982 | 0.909 | 1.05 | 1.03 | 1.04 | 0.995 | 0.406 | 0.399 | 0.373 | 0.334 | 0.452 | 0.939 | 0.946 | 0.973 | 0.968 | 0.951
PC-3 [JPC-3] | 1 | 1.12 | 1.06 | 0.839 | 0.899 | 0.863 | 0.667 | 0.889 | 0.856 | 0.81 | 0.902 | 0.87 | 0.929 | 1.04 | 1.01 | 0.708 | 0.904
PC-14 | 0.93 | 0.893 | 0.984 | 0.873 | 0.917 | 0.777 | 0.822 | 0.697 | 0.573 | 0.554 | 0.533 | 0.413 | 0.941 | 0.923 | 0.931 | 0.892 | 1.05
RERF-LC-KJ | 0.911 | 0.908 | 0.85 | 1.18 | 1.22 | 1.19 | 0.963 | 0.532 | 0.469 | 0.527 | 0.487 | 0.461 | 0.895 | 0.945 | 0.826 | 0.808 | 0.883
SK-LU-1 | 0.932 | 0.919 | 0.705 | 1.07 | 0.954 | 1.32 | 1.05 | 0.395 | 0.369 | 0.342 | 0.349 | 0.34 | 1.07 | 1.17 | 0.982 | 1.14 | 0.708
SW 1573 | 1.04 | 0.83 | 0.804 | 1.16 | 1.17 | 1.1 | 1.29 | 0.175 | 0.198 | 0.137 | 0.212 | 0.174 | 0.762 | 0.853 | 0.77 | 0.789 | 0.863
UMC-11 | 1.04 | 0.975 | 0.944 | 0.678 | 0.734 | 0.551 | 0.969 | 0.193 | 0.207 | 0.213 | 0.189 | 0.192 | 0.974 | 0.979 | 0.943 | 1 | 1.01
